Where two headings read alike, the source gives them in different places.
What was measured:
hippocampal astrocytes [1] = experiment: Intracellular glutamate content [Glu]i of astrocytes; format: cell-based, rat
Procedure: For experiments in which [Glu]o concentrations were assessed by the bioluminescence method, cells were maintained in glutamate-depleted medium in the presence or absence of the agonists/antagonist combination of interest. […] After the incubation period, the stimulation media (containing drugs of interest) were aspirated and cells were washed twice with MEM and allowed to remain for 30 to 60 minutes in drug free MEM supplemented with 20 mM glucose prior to taking media samples for glutamate measurements. To assess acute drug effects, untreated cells were washed and the reagent of interest applied in glucose supplemented MEM. Cells were harvested in 0.3 N NaOH and neutralized with 0.3 N HCl. Aliquots were stored in -20° C. for protein and [Glu]i determination. Glutamate standards used for calibration were prepared in MEM (For [Glu]i in 0.15 N NaCl).

hippocampal astrocytes [2] = experiment: Extracellular glutamate [Glu]o released by astrocyte cultures (bioluminescence); format: cell-based, rat; conditions: for minimal effective concentration: Rattus norvegicus, Astrocyte; for order of potency in mimicking ACPD effect on glutamate release: FIG. 7B; for effect on [Glu]o / glutamate release: cells treated for 24 hours, then MEM; for antagonism of ACPD effects on [Glu]o: applied simultaneously with ACPD; for antagonism of the effect of L-CCG-I on [Glu]o: data not shown; for effect on [Glu]o when Na+ gradient is disrupted: 1.0 mM Ouabain, 1.0/5.0 mM L-AA, 30 minute treatment
hippocampal astrocytes [3] = experiment: 3H-D-aspartate (glutamate/aspartate) uptake in astrocytes; format: cell-based, rat; conditions: for effect on aspartate uptake: KA or NMDA 1 mM, 24 hours
Procedure: Uptake procedures were essentially identical to those previously described (Kimelberg et al. 1989; Ye et al., 1996). Briefly, 5-10 minutes before assessing uptake, astrocytes were washed and kept in a solution containing (in mM): NaCl 122, KCl 3, MgSO4 0.4, KH2 PO4 1.2, NaHCO3 25, D-glucose 10, and CaCl2 1.3, at 37° C., bubbled with 5%/95% CO2 /O2. Then the cells were switched to the above solution supplemented with 0.1 mM D-aspartate and 0.4 μCi/ml ^3 H-D-aspartate. Glutamate/aspartate uptake was determined over a 10 or 30 minutes period and was terminated by three quick washes, twice with ice cold 0.29 M sucrose solution with 10 mM Tris Nitrate, 0.5 mM Ca(NO3)2, (pH 7.40 by NaOH) and then with ice cold PBS. Cells were then harvested after a 30 minute incubation in 0.3 N NaOH solution (37° C.) and ^3 H activity was determined in a liquid scintillation counter (Beckman). Total uptake was normalized to protein content to eliminate variability due to cell number. Protein levels were determined using the bicinchoninic acid (BCA) assay (Pierce; Rockford, Ill.).

glial cells = experiment: Glial glutamate uptake and extracellular glutamate with MPTP/MPP+ and t-ACPD; format: cell-based; conditions: for elevations of extracellular glutamate levels: glial cells
Procedure: The normally low glutamate levels in the brain are established and maintained in glial cells by non-vesicular uptake of glutamate through a Na^+ -dependent transporter (FIG. 14). Once taken up, glutamate can be converted to glutamine and recycled for neurotransmitter synthesis in neurons (FIG. 14). If glial cells in culture are exposed to high glutamate concentrations (e.g., 100 μM), they will remove it from the extracellular space and essentially "detoxify" the neuronal environment. […] Under those conditions, extracellular glutamate levels are elevated to 7 μM (FIG. 16), which is toxic to most surrounding neurons.
Impaired glial glutamate transport may contribute to the loss of dopaminergic neurons in Parkinson's disease. Thus, stimulation of this pathway would be neuroprotective. A drug and its receptor on glial cells was identified that allows enhanced glutamate detoxification. Specifically, trans-ACPD (trans-1-amino-1,3-cyclopentane dicarboxylic acid) (t-ACPD), a group II metabotropic glutamate receptor agonist, enhanced glial glutamate uptake (FIG. 17). It's actions were 2-fold; (i) it enhanced glutamate uptake by up to 80%, and (ii) it decreased non-specific release of glutamate, effectively trapping glutamate inside glial cells. In fact, the release of glutamate decreased to such a large extent that it almost made the transporter rectify, e.g. allowing only influx and preventing outflow of glutamate (FIG. 18). […] Using antibodies and further pharmacological studies, the receptor that is responsible for these effects has been identified as mGluR2/3.
In Parkinson's disease, it is believed that neurons may die of excitotoxic exposure to glutamate. The present invention determined that MPTP directly effects glutamate uptake into astrocytes (FIG. 21, top left). […] This increased release may be sufficient to explain some of the subsequent neurodegeneration.

dopaminergic neurons = experiment: Cell death of dopaminergic neurons induced by glutamate or MPTP; format: cell-based, rat; conditions: 0.2 mM
Procedure: Cell death of dopaminergic neurons induced by glutamate, and the role of glial glutamate transport in protection of cell death at the cellular level were studied as it relates to Parkinson's disease. […] Thus, glutamate concentrations as low as 3-5 μM induced rapid cell death (FIGS. 11 and 12). Glutamate concentrations were also measured in the normal brain. They are typically around 1 μM, below the toxic level for dopaminergic neurons. […] This late onset of glutamate toxicity is compatible with the late onset of Parkinson's disease.

[4] = co-incubation, Forskolin 10 μM, Db-cAMP 0.2 mM

O=C(O)[C@@H]1CN[C@@H](C(=O)O)C1 (relative stereo) [PDC, 1-trans-pyrrolidine-2,4,-dicarboxylate]
cellular glutamate content (hippocampal astrocytes [1]; 70 minutes incubation with 500 μM): 102.9±12.1 % of control

N[C@H](C(=O)O)[C@H](O)C(=O)O (relative stereo) [THA, DL-threo-β-hydroxyaspartate]
glutamate release induced by transportable uptake inhibitor (hippocampal astrocytes [2]; 5-2000 μM in glutamate free MEM, 25 and 70 minutes): increased glutamate release from astrocytes in a dose- and time-dependent manner
minimal effective concentration (hippocampal astrocytes [2]; glutamate free MEM, read-out: concentration giving significant increases in glutamate release): > 100 µM
activity at 500 µM (hippocampal astrocytes [1]; Rattus norvegicus, Astrocyte, 70 min, 70 minutes incubation with 500 μM, read-out: cellular glutamate content): 110 ± 14.7%

N[C@]1(C(=O)O)CC[C@H](C(=O)O)C1 [1R3S-ACPD, (1R,3S)-1-aminocyclopentane-1,3-dicarboxylic acid]
minimal effective concentration (hippocampal astrocytes [2]; 24 hours treatment, read-out: concentrations required to achieve any significant effect on glutamate release): > 50 µM
effect on aspartate uptake (hippocampal astrocytes [3]): No significant effects
activity at 1000 µM (hippocampal astrocytes [1]; Rattus norvegicus, Astrocyte, 24 h, highest dose used (1 mM), chronic treatment): 18.4 ± 0.9%

N[C@@]1(C(=O)O)CC[C@H](C(=O)O)C1 [1S3S-ACPD, (1S,3S)-1-aminocyclopentane-1,3-dicarboxylic acid]
order of potency in mimicking ACPD effect on glutamate release (hippocampal astrocytes [2]): S-4CPG>1S3R-ACPD>L-CCG-I>1S3S-ACPD=QA
effect on [Glu]o / glutamate release (hippocampal astrocytes [2]): reduce [Glu]o in a dose-dependent manner

N[C@@]1(C(=O)O)CC[C@@H](C(=O)O)C1 [ACPD]
persistence of effects (FIG. 6 Off curve) (hippocampal astrocytes [2]): over 10 hours
preincubation time for maximal effect (FIG. 6 On curve) (hippocampal astrocytes [2]): > 6 h
effect remaining after washout (hippocampal astrocytes [2]; 10 hours after ACPD had been washed off): 50%
time for effect to return to control levels after washout (hippocampal astrocytes [2]; 24 hours treatment, then ACPD free glutamate-depleted medium): about 20 hours
reduction in the steady-state [Glu]o (hippocampal astrocytes [2]; astrocytes cultured from animals >P10, on average): ≈ 5 fold
reduction in the steady-state [Glu]o (hippocampal astrocytes [2]; astrocytes cultured from younger animals): 30-50%
ACPD modulation of [Glu]o under disrupted Na+ gradient (hippocampal astrocytes [2]; low Na+/high K+, Ouabain or L-AA): failed to modulate [Glu]o
dose required for enhancement of uptake (hippocampal astrocytes [3]): ≈ 500 μM
acute effect on uptake (hippocampal astrocytes [3]; acute application of up to 3 hours): ineffective in enhancing uptake
enhancement of uptake (hippocampal astrocytes [3]; astrocytes from animals >P9, n=11): 35.2%±3.8%
enhancement of uptake (hippocampal astrocytes [3]; astrocytes from neonatal rat pups, n=14): 24.5%±2.4%
enhancement of uptake by region (hippocampal astrocytes [3]; hippocampal and spinal cord astrocytes): significant enhancement of uptake

N[C@H](C(=O)O)c1cc(O)cc(O)c1 [DHPG, (S)-3,5-dihydroxyphenylglycine]
effect on [Glu]o / glutamate release (hippocampal astrocytes [2]): ineffective

CCCC(=O)Nc1ncnc2c1ncn2[C@@H]1O[C@@H]2COP(=O)(O)O[C@H]2[C@H]1OC(=O)CCC [Db-cAMP, Dibutylyl-cAMP]
effect on ACPD effects on [Glu]o (hippocampal astrocytes [2]; [4]): neither blocked nor facilitated the ACPD effects on [Glu]o
effect on [Glu]o alone (hippocampal astrocytes [2]; up to highest concentration tested, 3 mM): did not significantly change [Glu]o

CC[C@](N)(CCC(=O)O)C(=O)O [EGLU, (2S)-α-Ethylglutamic acid]
antagonism of ACPD effects on [Glu]o (hippocampal astrocytes [2]): unable to suppress ACPD effects on [Glu]o
antagonism of the effect of L-CCG-I on [Glu]o (hippocampal astrocytes [2]): failed to inhibit the effect of other mGluR agonists

C=C[C@@]1(C)CC(=O)[C@]2(O)[C@@]3(C)[C@@H](O)CCC(C)(C)[C@@H]3[C@H](O)[C@H](OC(C)=O)[C@@]2(C)O1 [Forskolin]
effect on ACPD effects on [Glu]o (hippocampal astrocytes [2]; [4]): neither blocked nor facilitated the ACPD effects on [Glu]o

C=C(C)[C@H]1CN[C@H](C(=O)O)[C@H]1CC(=O)O [KA]
effect on [Glu]o / glutamate release (hippocampal astrocytes [2]): ineffective
effect on aspartate uptake (hippocampal astrocytes [3]): No significant effects

N[C@@H](CCCC(=O)O)C(=O)O [L-AA, L-aminoadipic acid]
effect on [Glu]o when Na+ gradient is disrupted (hippocampal astrocytes [2]): elevated [Glu]o

N[C@@H](CCP(=O)(O)O)C(=O)O [L-AP4, L(+)-2-amino-4-phosphonobutyric acid]
effect on [Glu]o / glutamate release (hippocampal astrocytes [2]): ineffective

N[C@H](C(=O)O)[C@H]1C[C@@H]1C(=O)O [L-CCG-I, (2S,3S,4S)-2-(carboxycyclopropyl) glycine]
order of potency in mimicking ACPD effect on glutamate release (hippocampal astrocytes [2]): S-4CPG>1S3R-ACPD>L-CCG-I>1S3S-ACPD=QA
effect on [Glu]o / glutamate release (hippocampal astrocytes [2]): reduce [Glu]o in a dose-dependent manner

N[C@@H](CS(=O)O)C(=O)O [L-CSA, L-cystein-sulfinic acid]
effect on [Glu]o / glutamate release (hippocampal astrocytes [2]): ineffective

C[C@@](N)(C(=O)O)[C@H]1C[C@@H]1C(=O)O [MCCG, (2S,3S,4S)-2-methyl-2-(carboxycyclopropyl)glycine]
antagonism of ACPD effects on [Glu]o (hippocampal astrocytes [2]): unable to suppress ACPD effects on [Glu]o
antagonism of the effect of L-CCG-I on [Glu]o (hippocampal astrocytes [2]): failed to inhibit the effect of other mGluR agonists

C[C@@](N)(C(=O)O)c1ccc(C(=O)O)cc1 [MCPG, (S)-α-methyl-4-carboxyphenylglycine]
antagonism of ACPD effects on [Glu]o (hippocampal astrocytes [2]): unable to suppress ACPD effects on [Glu]o
antagonism of the effect of L-CCG-I on [Glu]o (hippocampal astrocytes [2]): failed to inhibit the effect of other mGluR agonists

C[n+]1ccc(-c2ccccc2)cc1 [MPP^+, 1-methyl-4-phenylpyridinium]
extracellular glutamate levels elevated to (glial cells): 7 µM
elevations of extracellular glutamate levels (glial cells): up to 5 fold

CN1CC=C(c2ccccc2)CC1 [MPTP, 1-methyl-4-phenyl-1-1,2,3,6-tetrahydropyridine]
neuronal cell death (dopaminergic neurons): wide-spread cell death within less than 24 hours
ability of glial cells to detoxify glutamate (glial cells): compromised in a dose dependent manner
extracellular glutamate levels elevated to (glial cells): 7 µM
elevations of extracellular glutamate levels (glial cells): up to 5 fold

CN[C@H](CC(=O)O)C(=O)O [NMDA]
effect on [Glu]o / glutamate release (hippocampal astrocytes [2]): ineffective
effect on aspartate uptake (hippocampal astrocytes [3]): No significant effects

C[C@@H]1O[C@@H](O[C@H]2C[C@@H](O)[C@]3(CO)[C@H]4[C@H](O)C[C@]5(C)[C@@H](C6=CC(=O)OC6)CC[C@]5(O)[C@@H]4CC[C@]3(O)C2)[C@H](O)[C@H](O)[C@H]1O [Ouabain]
effect on [Glu]o when Na+ gradient is disrupted (hippocampal astrocytes [2]): elevated [Glu]o

N[C@@H](Cn1oc(=O)[nH]c1=O)C(=O)O [QA, Quisqualic acid]
order of potency in mimicking ACPD effect on glutamate release (hippocampal astrocytes [2]): S-4CPG>1S3R-ACPD>L-CCG-I>1S3S-ACPD=QA
effect on [Glu]o / glutamate release (hippocampal astrocytes [2]): reduce [Glu]o in a dose-dependent manner

N[C@H](C(=O)O)c1ccc(C(=O)O)cc1 [S-4CPG, (S)-4-carboxyphenylglycine]
order of potency in mimicking ACPD effect on glutamate release (hippocampal astrocytes [2]): S-4CPG>1S3R-ACPD>L-CCG-I>1S3S-ACPD=QA
effect on [Glu]o / glutamate release (hippocampal astrocytes [2]): reduce [Glu]o in a dose-dependent manner

C[C@@H]1C[C@@H]([C@H](O)CC2CC(=O)NC(=O)C2)C(=O)[C@@H](C)C1 [cycloheximade, cycloheximide]
effect on ACPD induced attenuation of [Glu]o (hippocampal astrocytes [2]; 2 μg/ml): could not inhibit the ACPD induced attenuation of [Giu]o

cholera toxin
effect on ACPD effects on [Glu]o (hippocampal astrocytes [2]): neither inhibited nor mimicked ACPD effects

pertussis toxin
inhibition of ACPD modulation of [Glu]o (hippocampal astrocytes [2]; 0.01-500 ng/ml added 6 hours prior to ACPD): failed to inhibit ACPD modulation
reversal of ACPD modulation of [Glu]o (hippocampal astrocytes [2]; applied after ACPD had been washed off): failed to reverse the modulatory effects of ACPD

From US6013672A, “Agonists of metabotropic glutamate receptors and uses thereof” (UAB Research Foundation, priority 1997, dated 2000)
